This is an account of results in ChEMBL document CHEMBL1146311, “Carbonic anhydrase activators: L-Adrenaline plugs the active site entrance of isozyme II, activating better isoforms I, IV, VA, VII, and XIV” (Bioorg Med Chem Lett, 2007).

Data set [1] addresses Carbonic anhydrase 2 (Homo sapiens) (UniProt P00918).
Description: Activation of human recombinant CA2 by CO2 hydration method
Data set [2] deals with Carbonic anhydrase 5A, mitochondrial (Homo sapiens) (UniProt P35218).
Description: Activation of human recombinant CA5A by CO2 hydration method
Data set [3] concerns the target Carbonic anhydrase 1 (Homo sapiens) (UniProt P00915).
Description: Activation of human recombinant CA1 by CO2 hydration method
Data set [4] concerns the target Carbonic anhydrase 4 (Homo sapiens) (UniProt P22748).
Description: Activation of human recombinant CA4 by CO2 hydration method
Data set [5] deals with Carbonic anhydrase 14 (Homo sapiens) (UniProt Q9ULX7).
Carbonic anhydrase 14 (Homo sapiens), sequence (Q9ULX7 whole entry): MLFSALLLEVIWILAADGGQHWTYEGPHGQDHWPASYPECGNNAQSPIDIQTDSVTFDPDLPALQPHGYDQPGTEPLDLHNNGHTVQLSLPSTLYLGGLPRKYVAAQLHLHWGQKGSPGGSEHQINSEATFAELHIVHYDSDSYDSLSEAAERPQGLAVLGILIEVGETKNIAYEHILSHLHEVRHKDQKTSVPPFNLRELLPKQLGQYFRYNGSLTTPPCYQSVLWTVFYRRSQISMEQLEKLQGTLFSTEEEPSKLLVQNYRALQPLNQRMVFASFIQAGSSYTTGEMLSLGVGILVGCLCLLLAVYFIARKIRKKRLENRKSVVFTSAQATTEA
Description: Activation of human recombinant CA14 by CO2 hydration method
Data set [6] concerns the target Carbonic anhydrase 7 (Homo sapiens) (UniProt P43166).
Description: Activation of human recombinant CA7 by CO2 hydration method
Data set [7] deals with NCCc1c[nH]cn1. The conditions noted are these: Homo sapiens; 10 uM.
Description: (§1) Activity of human recombinant CA2 at 10 uM by stopped-flow technique
In data set [8] the test system is CNC[C@H](O)c1ccc(O)c(O)c1. The conditions noted are these: Homo sapiens; 10 uM.
Description: as §1
The test system of data set [9] is NCCc1c[nH]cn1. The note with it: Homo sapiens; 10 uM. This is another data set of the same source.
Description: (§2) Activity of human recombinant CA1 at 10 uM by stopped-flow technique
Data set [10] concerns CNC[C@H](O)c1ccc(O)c(O)c1. The conditions noted are these: Homo sapiens; 10 uM. The source holds these as a separate data set.
Description: as §2

Carbonic anhydrase 5A, mitochondrial (Homo sapiens), sequence (P35218 whole entry): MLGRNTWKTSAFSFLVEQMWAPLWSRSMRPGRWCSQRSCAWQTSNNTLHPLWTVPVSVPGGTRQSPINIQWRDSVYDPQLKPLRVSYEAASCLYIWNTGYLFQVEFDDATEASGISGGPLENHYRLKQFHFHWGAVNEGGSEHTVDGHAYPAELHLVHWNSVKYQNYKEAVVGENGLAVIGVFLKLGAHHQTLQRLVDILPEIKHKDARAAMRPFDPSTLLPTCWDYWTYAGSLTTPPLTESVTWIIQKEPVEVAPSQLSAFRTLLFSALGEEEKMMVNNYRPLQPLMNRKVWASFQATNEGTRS
Carbonic anhydrase 4 (Homo sapiens), sequence (P22748 whole entry): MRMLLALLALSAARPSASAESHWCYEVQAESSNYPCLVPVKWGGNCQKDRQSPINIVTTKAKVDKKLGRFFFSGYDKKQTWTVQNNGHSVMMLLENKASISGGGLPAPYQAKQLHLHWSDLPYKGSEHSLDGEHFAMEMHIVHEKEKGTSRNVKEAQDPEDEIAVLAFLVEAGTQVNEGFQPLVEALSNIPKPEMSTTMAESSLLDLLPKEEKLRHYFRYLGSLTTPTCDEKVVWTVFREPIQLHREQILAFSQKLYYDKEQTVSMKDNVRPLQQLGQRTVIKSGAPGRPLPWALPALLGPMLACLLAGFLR
Carbonic anhydrase 1 (Homo sapiens), sequence (P00915 2-261 limits assumed): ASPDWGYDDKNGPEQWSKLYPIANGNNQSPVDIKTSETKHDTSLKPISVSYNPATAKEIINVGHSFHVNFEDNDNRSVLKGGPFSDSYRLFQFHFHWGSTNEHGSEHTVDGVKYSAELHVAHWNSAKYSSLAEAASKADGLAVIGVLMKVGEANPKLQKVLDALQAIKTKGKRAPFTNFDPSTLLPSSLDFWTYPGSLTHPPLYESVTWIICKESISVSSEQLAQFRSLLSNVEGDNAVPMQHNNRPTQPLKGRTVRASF
Carbonic anhydrase 7 (Homo sapiens), sequence (P43166 whole entry): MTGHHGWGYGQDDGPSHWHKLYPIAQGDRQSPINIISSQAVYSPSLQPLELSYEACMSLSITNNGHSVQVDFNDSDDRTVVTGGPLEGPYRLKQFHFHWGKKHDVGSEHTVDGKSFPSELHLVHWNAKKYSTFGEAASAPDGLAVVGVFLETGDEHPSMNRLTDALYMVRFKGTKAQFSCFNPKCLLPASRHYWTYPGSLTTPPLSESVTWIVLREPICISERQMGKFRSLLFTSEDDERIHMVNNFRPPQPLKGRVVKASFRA
Carbonic anhydrase 1 (Homo sapiens), P00915, sequence (P00915 whole entry): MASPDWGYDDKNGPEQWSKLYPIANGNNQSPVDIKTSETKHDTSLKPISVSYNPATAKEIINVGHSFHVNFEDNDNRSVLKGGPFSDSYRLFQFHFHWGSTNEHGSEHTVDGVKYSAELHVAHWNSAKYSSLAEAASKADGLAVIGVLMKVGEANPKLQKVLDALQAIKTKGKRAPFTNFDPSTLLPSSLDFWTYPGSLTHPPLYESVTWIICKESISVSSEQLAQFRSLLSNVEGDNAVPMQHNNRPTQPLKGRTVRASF

Turning to `CNC[C@H](O)c1ccc(O)c(O)c1`, the Ka in data set [1] stood at 96 µM; in data set [2], 63 µM; in data set [3], 0.09 µM; in data set [4], 45 µM; in data set [5] it was 36 µM; in [6], 60 µM.
Broadly, the kcat is the maximal rate divided by the concentration of active sites. As for “Carbonic anhydrase 2 (Homo sapiens) (from UniProt P00918)”, the results for the kcat (in the data set on NCCc1c[nH]cn1 [7]; in data set [8]) were 2 10^6/s and 1.7 10^6/s, respectively.
For the compound `NCCc1c[nH]cn1`, the Ka in data set [1] was 74 µM; in [2], 2.5 µM; in data set [3], 0.05 µM; in [4], 31 µM; in data set [5], 1.9 µM; in [6] it was 1.3 µM.
As to “Carbonic anhydrase 1 (Homo sapiens), P00915”, the turnover number (kcat) with NCCc1c[nH]cn1 [9] was 12.7 10^5/s; in [10], 10.4 10^5/s.
